Source: patent US20180338993A1, “TREATMENT OF HEPATITIS DELTA VIRUS INFECTION” (Eiger BioPharmaceuticals, Inc., priority 2014, published 2018)
Converted amounts (≈) assume the structure as drawn. Where two headings read alike, the source gives them in different places.

Tests used:
[1] = Solubility in water, buffers and physiological fluids; type: physicochemical
Excerpt: Tipifarnib is a methyl-quinolinone with a molecular formula of C27H22Cl2N4O and molecular weight of 489.40. […] These are safe and well tested excipients that are commonly used in marketed products. The film coatings of the tablets contain hypromellose, titanium dioxide, lactose monohydrate, polyethylene glycol, and triacetin. “Tipifarnib derivative” as used herein refers not only to R208176 but also to molecules closely structurally related to either tipifarnib or R208176 with similar pharmacologic activity against HDV; this term includes, for example and without limitation, compounds described in U.S. Pat. Nos. 6,169,096; 6,365,600; 6,420,387; 6,734,194; 6,743,805; 6,838,467; and 7,253,183.
R208176 is an off-white, non-hygroscopic and crystalline powder. It has a molecular weight of 501.4 Daltons and a molecular formula of C25H18Cl2N8.

[2] = cited from earlier work

SMILES | solubility ([1]; 0.1 N HCl, simulated gastric fluid, read-out: solubility in 0.1 N HCl) [µg/mL] | solubility in 0.1 N NaOH ([1]; 0.1 N NaOH) | solubility ([1]; aqueous buffer, citrate-HCl buffer pH 4, read-out: solubility in citrate-HCl buffer pH 4) [µg/mL] | solubility in borate-HCl buffer pH 8 ([1]; borate-HCl buffer pH 8) | solubility in borate-KCl—NaOH buffer pH 10 ([1]; borate-KCl—NaOH buffer pH 10) | solubility in citrate-HCl buffer pH 2 ([1]; citrate-HCl buffer pH 2) | solubility in citrate-NaOH buffer pH 6 ([1]; citrate-NaOH buffer pH 6) | solubility ([1]; gastric fluid, simulated gastric fluid, read-out: solubility in gastric fluid) [µg/mL] | solubility in intestinal fluid ([1]; intestinal fluid) | solubility in water [1] | solubility in 0.1 N HCl ([1]; 0.1 N HCl) | solubility in citrate-HCl buffer ([1]; citrate-HCl buffer) | solubility in citrate-NaOH buffer ([1]; citrate-NaOH buffer) | solubility in phosphate buffers ([1]; phosphate buffers) | DLTs at 200 mg BID ([2]; 200 mg BID dose, dosed for 200 days) | patients stopping treatment due to adverse events (grade 3 or 4) ([2]; 13 cancer patients) | Dose limiting toxicities ([2]; cancer patients, continuous oral BID dosing) | MTD ([2]; cancer patients, orally BID, continuous dosing for up to 56 days) [mg] | Most common AEs ([2]; cancer patients)
Cn1cncc1[C@@](N)(c1ccc(Cl)cc1)c1ccc2c(c1)c(-c1cccc(Cl)c1)nc1nnnn12 [R208176] | 10000 to 33000 (≈ 19.9 to 65.8 mM) | practically insoluble | 100 to 1000 (≈ 0.199 to 1.99 mM) | practically insoluble | practically insoluble | slightly soluble | practically insoluble | 10000 to 33000 (≈ 19.9 to 65.8 mM) | practically insoluble | practically insoluble |  |  |  |  |  |  |  |  | 
Cn1cncc1[C@@](N)(c1ccc(Cl)cc1)c1ccc2c(c1)c(-c1cccc(Cl)c1)cc(=O)n2C [tipifarnib, (R)-6-[amino(4-chlorophenyl)(1-methyl-1H-imidazol-5-yl)methyl]-4-(3-chlorophenyl)-1-methyl-2(1H)-quinolinone] |  |  |  |  |  |  |  |  |  | insoluble | moderately soluble | slightly soluble | insoluble | insoluble | No DLTs were observed | 4 of 13 | granulocytopenia and neuropathy | 300 | gastrointestinal-related
